Series [1] can be described thus: Physical-chemical characterization: viscosity and density. Type of series: physicochemical. On the procedure:
(§1) More than a dozen esters and amide derivatives of DTPA were synthesized. […] C2E5 is an oil with a viscosity of 163 cps at 25° C. […] The density of C2E5 was determined to be 1.119 g/mL. […] The intrinsic partition coefficient (log P) of C2E5 is difficult to measure due to its instability at high pH. Thus, the log D6.0 was determined by measuring the partitioning of C2E5 into octanol and water phases.
The solvent evaporation method was subsequently used to prepare the C2E5 non-aqueous gel formulations.

Series [2] is described as follows: Equilibrium solubility of C2E5 in aqueous media of varying pH. Type of series: physicochemical. The settings on record: aqueous buffer, thermodynamic from solid.
A short description of series [3]: log D by partitioning into octanol and water phases. It is filed as physicochemical. The note with it: pH 6.0, octanol and water. As to the method: as §1
Series [4] is described as follows: Pharmacokinetics of neat C2E5 and C2E5 non-aqueous gel, plasma LC/MS/MS (Example 9). It is filed as in vivo, Sprague-Dawley (SD) rats. The note with it: SD rat plasma; 200 mg/kg. On the procedure: All animal studies were conducted according to a protocol approved by the University of North Carolina at Chapel Hill Institutional Animal Care and Use Committee (IACUC). Ten-week-old adult female Sprague-Dawley (SD) rats weighing from 200 to 300 g were used in these studies (Charles River Labs, Raleigh, N.C.). Food and water were given ad libitum. The animal room was kept at a controlled temperature (23° C.) and light cycle (light exposure from 8 AM to 8 PM). For the duration of the study, the rats were housed in metabolic cages individually with urine and feces collection until euthanasia at 24 h after neat C2E5 or C2E5 gel application.
Neat C2E5 (i.e., only C2E5) at a dose of 200 mg/kg was applied using a 1 mL syringe to the same size area as a positive control. […] The mass of neat C2E5 or C2E5 gel applied was recorded for each animal to permit actual dose determination. […] The animals were observed during the study period and the body weight of the animals was recorded at pre-dose and prior to necropsy.
Acidified plasma samples (100 μL) were first treated with 25 μL of ^13C—C2E5 stable-label internal standard (1000 ng/mL), followed by precipitation with MeCN (400 μL). […] After separation by liquid chromatography, the analytes and internal standard were detected on a triple quadrupole mass spectrometer using heated electrospray ionization (HESI-II) in the positive-ion mode. […]

We go through one compound from patent publication US20140243411A1 (priority 2011, published 2014).

In series [1], `CCOC(=O)CN(CCN(CC(=O)OCC)CC(=O)OCC)CCN(CC(=O)OCC)CC(=O)OCC` [Formulation C2E5, penta-substituted ethyl ester of DTPA] returned a density of 1.119 g/mL. The viscosity in series [1] (25° C.) was 163 cps. Further, the thermodynamic solubility in series [2] (pH 5.7, room temperature) was determined as 20.3 mg/mL; in series [2] (pH 7.1, room temperature), 3 mg/mL. In series [3], the logD amounted to 2.2. For the same compound, the “C2E1 in plasma samples” value in series [4] is listed as “not detected”.

The density is the mass of a sample divided by its volume. For orientation: thermodynamic solubility means solubility found after equilibrating the solid with the medium. As a reminder, the logD is lipophilicity at a set pH, counting ionised and neutral species.
